# Entries after “also recorded” stand apart in the source; their conditions may differ.
# Assays:
# [1] = tested on: HD larvae (Elav^c155-GAL4; UAS-Htt-Q138/+); test: In vivo rescue: viability of HD larvae after 5-day drug dosing in liquid culture; design: species or system Drosophila; settings: larvae reared in liquid culture, 5-day dosing, compared to DMSO-treated controls
# Method: In vivo Rescue studies: For small molecule in vivo rescue studies, Elav^c155; UAS-Htt-Q138-mRFP^1, UAS-mCD8-GFP/+1st instar larvae were collected en-masse and dispensed into liquid yeast media (10 larvae/well) containing therapeutic agents at three different concentrations as described in the results (n=8 replicas/concentration). Cultures were reared at 21° C. and larval viability was assessed after 5 days and the mean number of living Htt138Q larvae (i.e. GFP^+, Htt138QmRFP^+, and mobile) was tabulated, and expressed as a percentage of total larvae/well. For genetic rescue studies with lkb1, two Htt138Q strains were utilized: a strong expressing line, UAS-Htt138QmRFP^1 which is pharate lethal when crossed to Elav^c155, and a weaker expressing line, UAS-Htt138QmRFP^2 which survives to adulthood and is viable for a number of weeks. Using the strong line, pharate lethality at 25° C. was calculated after lkb1 (lkb1^4B1-11 and lkb1^4A4-2 alleles) was introduced into an Elav^c155, UAS-Htt/+background. Lkb1^4B1-11 is a premature truncation allele (Q98>Stop), and lkb1^4A4-2 is an EMS null allele (589 b.p. deletion removing 150 b.p. of the 5′ UTR, the start codon and the beginning of the open reading frame). For Top1 in vivo analysis, Elav^c155, Top^112 recombinants were generated and crossed to UAS-Htt138QmRFP^1.
# To further examine the RNAi/small molecule screen hits, we assayed in vivo efficacy by testing their ability to rescue lethality in our Drosophila HD model. […] Specific inhibitors of Lkb1 were not available for in vivo testing.
# [2] = tested on: Drosophila HD model; test: Early dosing of carbenoxolone in Drosophila HD model (lifespan, motor control); type: in vivo
# [3] = tested on: HD model strain mice; test: Rotarod assay in HD model strain mice; type: in vivo, mouse; settings: treated from 4 weeks, tested at 8 weeks of age, vs untreated HD mice
# Source text: Mouse strains: Mouse strain names provided herein adhere to the Guidelines for Nomenclature of Mouse and Rat Strains, Revised October 2011, International Committee on Standardized Genetic Nomenclature for Mice, accessible at www.informatics.jax.org/mgihome/nomen/strains.shtml. Official gene symbols, or, where appropriate, official mouse strain names of the Jackson Laboratory (www.jax.org, e.g., the Jackson Laboratory Mice Database at jaxmice.jax.org) are used. […]
# Rotarod assay: Mice are habituated to balancing on a slowly rotating rotarod (5 rpm). […] The time to fall off the rod, onto a platform located ˜30 cm below the rod, is measured. The increase in latency to fall during the course of training is compared between four groups of mice for each candidate compound to be evaluated (Mutant+candidate, mutant no candidate, wild type+candidate, wild type no candidate). […]
# At 8 weeks of age, motor and cognitive performance are tested in rotarod and water maze assays. Untreated mice are expected to show a significant impairment of motor and cognitive capabilities at 8 weeks of age, as measured by a shortened latency to fall in the rotarod assay, and a lengthened latency to escape in the water maze assy, respectively, as compared to wid type control mice.
# [4] = tested on: subject carrying a polyQ tract expansion mutation in the Huntingtin gene; test: Carbenoxolone in pre-symptomatic HD patients; type: in vivo, human; settings: administered before clinical symptoms manifest, from about 150 mg/day
# Method: After a period of time sufficient for a change in a cortisol level to manifest, e.g. after about a week, about two weeks, about three weeks, or about a month, the cortisol level in the subject is measured. […] For example, in some embodiments, the dose may be increased from about 150 mg/day to about 300 mg/day. In some embodiments, the cortisol level in the subject is measured again after dose adjustment and, if the cortisol level remains elevated, the dose is increased further. For example, in some embodiments, the dose may be increased from about 300 mg/day to about 450 mg/day. In some embodiments, multiple cycles of dose adjustment and cortisol level measurement are performed until a desired cortisol level is observed in the subject, for example, a blood plasma cortisol level within the range of 70-700 nmol/l or 70-350 nmol/l. For example, in some embodiments, the dose may be increased from about 150 mg/day to about 300 mg/day in a first dose adjustment, then to about 450 mg/day, then to about 500 mg/day, then to about 600 mg/day. […] In some cases, the dosage may be decreased below 150 mg/day, particularly, where a desired reduction in a cortisol level is still observed with lower doses. […]
# [5] = tested on: gap junction; settings: cited from earlier work
smiles,measurement,setting,value
CC1(C)[C@@H](OC(=O)CCC(=O)O)CC[C@]2(C)[C@H]3C(=O)C=C4[C@@H]5C[C@@](C)(C(=O)O)CC[C@]5(C)CC[C@@]4(C)[C@]3(C)CC[C@@H]12 [Carbenoxolone],Viability of Htt-Q138 expressing larvae / rescue of Htt-Q138 lethality,[1],comparable activity
same,Viability of Htt-Q138 expressing larvae / rescue of Htt-Q138 lethality,[1]; listed as carbenoxolone,rescue HD toxicity in vivo
same,Motor control / chorea (defective motor coordination),[2]; Drosophila HD model,improves motor control; also recorded: improves chorea
same,Drosophila HD model lifespan,[2]; early dosing,extends Drosophila HD model lifespan
same,"Impairment of motor capabilities (latency to fall, rotarod)",[3],lesser degree of impairment
same,Onset and severity of HD symptoms,[4],"prevention or delay of the onset, and/or an amelioration of the severity of at least one HD symptom"
same,Gap junction activity,[5],block gap junction activity
